Two compounds from patent publication US20250197799A1, “CELLS DERIVED FROM POLYPEDILUM VANDERPLANKI AND ODOR SENSOR EQUIPPED THEREWITH” (University of Maryland, College Park, priority 2022, published 2025) can be followed below.

Type in all cases: cell-based
One test concerns the target T1, Orco (Drosophila melanogaster, UniProt Q9VNB5).
T1 construct: remnant residues; expressed in transfected cells; host or cells: Pv11 cells (Polypedilum vanderplanki), knock-in at the Pv.00443 locus downstream of the 121 promoter, single-cell sorting
T1 sequence (Q9VNB5 1-486): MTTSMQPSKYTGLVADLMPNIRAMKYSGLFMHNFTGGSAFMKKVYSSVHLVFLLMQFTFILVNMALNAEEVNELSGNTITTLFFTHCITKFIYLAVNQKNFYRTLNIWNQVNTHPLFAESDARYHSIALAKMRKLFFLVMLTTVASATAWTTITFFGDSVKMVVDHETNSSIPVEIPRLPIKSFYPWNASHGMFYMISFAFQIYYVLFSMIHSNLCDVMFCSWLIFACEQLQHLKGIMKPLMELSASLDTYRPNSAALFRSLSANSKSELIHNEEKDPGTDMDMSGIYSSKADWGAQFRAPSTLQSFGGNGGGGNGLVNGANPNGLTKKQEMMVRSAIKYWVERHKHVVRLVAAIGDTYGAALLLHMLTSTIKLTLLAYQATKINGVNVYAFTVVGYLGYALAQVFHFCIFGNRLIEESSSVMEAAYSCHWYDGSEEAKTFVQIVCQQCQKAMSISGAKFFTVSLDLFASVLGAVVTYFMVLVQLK
Nature of the test: Exogenous membrane protein function after drying-rehydration, Orco stable expression cell line. The settings on record: 1 hour after drying and rehydration. How it is done:
To assess the drought tolerance of the cell lines, the cells were dried according to the following protocol. 4×10^7 Pv11-GCaMP6f stable expression cell lines were centrifuged at 700 g for 3 minutes and the supernatant removed. The precipitated cells were suspended in a 600 mM trehalose mix of 600 mM trehalose and IPL-41 medium at a ratio of 9:1, transferred to a 2 ml flask, and incubated at 25° C. for 48 hours. After 48 hours, the obtained cells were centrifuged at 700 g for 3 minutes and the supernatant was removed. The sedimented cells were suspended in 400 μl of 600 mM trebalose mix, and 40 μl were dropped onto a 35 mm dish. […]
6. […] Using the Orco stable expression cell line and Orco-Or47a stable expression cell line, in order to assess the function of exogenous membrane proteins before drying and after 1 hour of rehydration after drying, fluorescence intensity generated in response to stimulation with VUAA1 (Orco agonist) or pentyl acetate (ligand of Or47a) was measured in the same manner as in 3.2 above.
(§1) The fluorescence intensity was digitized from the photograph, and ΔF/F was calculated according to the following formula:
Where the summation Σi=1^n is over the n cells in the image, Fi,after means the fluorescence intensity of the cell i after adding the ligand solution, and Fi,0 means the fluorescence intensity of the cell i before adding the ligand solution. […]

For test [1], the target named is T2, Orco-Or47a (Drosophila melanogaster, UniProt P81921+Q9VNB5).
T2 sequence (Q9VNB5 1-486): T1 sequence (Q9VNB5 1-486)
T2 sequence (P81921 1-385): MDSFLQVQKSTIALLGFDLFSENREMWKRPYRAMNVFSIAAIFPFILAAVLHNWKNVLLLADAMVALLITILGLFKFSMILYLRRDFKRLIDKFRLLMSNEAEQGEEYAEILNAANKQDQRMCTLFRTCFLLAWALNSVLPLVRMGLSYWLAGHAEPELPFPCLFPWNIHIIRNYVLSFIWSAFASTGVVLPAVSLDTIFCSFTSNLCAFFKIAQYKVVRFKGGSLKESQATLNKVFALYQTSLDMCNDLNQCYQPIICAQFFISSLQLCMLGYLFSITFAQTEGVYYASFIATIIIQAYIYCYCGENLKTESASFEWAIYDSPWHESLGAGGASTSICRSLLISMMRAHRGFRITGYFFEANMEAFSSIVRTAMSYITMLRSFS
Nature of the test: Exogenous membrane protein function before drying and after drying-rehydration, Orco-Or47a stable expression cell line. On the set-up: remnant residues; expressed in transfected cells; host or cells: Pv11 cells (Polypedilum vanderplanki), CRIS-PITCh knock-in at the Pv.00443 locus downstream of the 121 promoter, Zeocin selection and single-cell sorting. As for the experimental part:
To assess the drought tolerance of the cell lines, the cells were dried according to the following protocol. 4×10^7 Pv11-GCaMP6f stable expression cell lines were centrifuged at 700 g for 3 minutes and the supernatant removed. The precipitated cells were suspended in a 600 mM trehalose mix of 600 mM trehalose and IPL-41 medium at a ratio of 9:1, transferred to a 2 ml flask, and incubated at 25° C. for 48 hours. After 48 hours, the obtained cells were centrifuged at 700 g for 3 minutes and the supernatant was removed. The sedimented cells were suspended in 400 μl of 600 mM trebalose mix, and 40 μl were dropped onto a 35 mm dish. The 35 mm dish was dried for 10 days under conditions of 25° C. and humidity of 10% or less.
6. Assessment of exogenous membrane protein function after drying-rehydration. Using the Orco stable expression cell line and Orco-Or47a stable expression cell line, in order to assess the function of exogenous membrane proteins before drying and after 1 hour of rehydration after drying, fluorescence intensity generated in response to stimulation with VUAA1 (Orco agonist) or pentyl acetate (ligand of Or47a) was measured in the same manner as in 3.2 above.
as §1
Where the summation Σi=1^n is over the n cells in the image, Fi,after means the fluorescence intensity of the cell i after adding the ligand solution, and Fi,0 means the fluorescence intensity of the cell i before adding the ligand solution.
Specifically, a fluorescence image was taken under the condition in which the excitation wavelength/fluorescence wavelength was 488 nm/525 nm. In the fluorescence intensity quantification, the cells were identified in the photographed image, and the fluorescence intensity (F) was measured for each time. The initial values of fluorescence intensity (F0) were subtracted from the measured fluorescence intensity at each time to obtain the amount of change in fluorescence (ΔF), which was then normalized by dividing by the initial value of fluorescence intensity (F0) to obtain (Δ F/F0). A number of cells n were selected from the captured image, ΔF/F0 were produced for each, and the average value (including standard deviation, SD) of the results was graphed. For example, 25 cells were selected from the captured image, ΔF/F0 for each were produced, and the averaged results (including SD) were graphed. […] The Orco-Or47a stable expression cell line before drying responded to the Orco agonist (VUAA1) and the specific ligand of Or47a, pentyl acetate.

In test [2] the target is T2, Orco-Or47a. Nature of the test: Ligand assay using a perfusion system. The settings on record: 1 mM pentyl acetate perfused 5 minutes at 1 mL/min; BAM-fixed cells. The arrangement: remnant residues; expressed in transfected cells; host or cells: Pv11 cells (Polypedilum vanderplanki), CRIS-PITCh knock-in at the Pv.00443 locus downstream of the 121 promoter, Zeocin selection and single-cell sorting. As for the experimental part:
9.1 Ligand assay. A ligand assay was performed using a perfusion system using Orco-Or47a stable expression cell line and GCaMP6f stable expression cell line. […] The Orco-Or47a stable expression cell line and the GCaMP6f stable expression cell line were fixed with BAM as described in 8.1 above and perfused at a flow rate of 1 mL/min using a peristaltic pump (SJ-1211 II-L2, ATTO). The perfusion solution was ACSF buffer (125 mM NaCl, 5.6 mM KCl, 1.25 mM Na2HPO4, 10 mM HEPES, 1.5 mM CaCl2), pH7.4) as a standard solution. As a ligand for Or47a, pentyl acetate was diluted to a final concentration of 1 mM, and as a negative control, DMSO was diluted to 1% by mass. The standard solution was perfused, switched to 1 mM pentyl acetate solution or 1% by mass DMSO solution, and perfusion was performed for 5 minutes. Photographing of the cells was started after waiting for the 1 mM pentyl acetate solution or 1% by mass DMSO solution to reach the cells in about 60 seconds. Bright-field and fluorescence images of the perfused Pv11 cells were taken 30 times at 10-second intervals (LSM700, ZEISS). The method for obtaining ΔF/F0 was as described above. 25 cells were selected from the captured image, each produced ΔF/F0, and the response was maintained for about 4 minutes; from this it was confirmed that the present disclosure can be applied as an odor sensor capable of rapid odor determination.

Where [3] appears, read: 1 hour after drying and rehydration, compared to DMSO control.

Molecules are shown by their SMILES. Entries after “also recorded” stand apart in the source; their conditions may differ.

As for `CCc1ccc(NC(=O)CSc2nnc(-c3cccnc3)n2CC)cc1` [VUAA1, N-(4-ethylphenyl)-2-{[4-ethyl-5-(pyridin-3-yl)-4H-1,2,4-triazol-3-yl]sulfanyl}acetamide], the fluorescence on stimulation entry at Orco was “fluorescence was observed”. The “response as change in fluorescence intensity (ΔF/F0)” value is recorded as “significant difference in responsiveness; also recorded: fluorescence was observed” on Orco-Or47a [1] (setting [3]) and “responded” at Orco-Or47a [1] (before drying).
With `CCCCCOC(C)=O` [pentyl acetate], the “response as change in fluorescence intensity (ΔF/F0)” value at Orco-Or47a [1] (setting [3]) is given as “significant difference in responsiveness; also recorded: fluorescence was observed”; at Orco-Or47a [1] (before drying), “responded”. Further, the “time the response was maintained” value at Orco-Or47a [2] is listed as “about 4 minutes”.
